From PubChem BioAssay AID844 (SRMLSC, 2007)
pEC50: −log10 of the molar value. Activity calls are given as the source filed them. How the calls were made is not given here.

System: MRP1 cells, doxorubicin viability shift, 10 uM compound
Assay: doxorubicin EC50 increase in MRP-1 cells, dose response, cell-based, doxorubicin EC50 shift (AID 844)
Conditions: for pEC50: measured here: doxorubicin EC50 with compound

SMILES	fold increase in Dox EC50	pEC50
COc1ccc(-c2nnc(SC(C)C(=O)Nc3cccc(Cl)c3)o2)cc1 (stereo not given)	0.74 (inactive)	5.40
CCc1ccc(NC(=O)Cn2c(=O)oc3cc(S(=O)(=O)N4CCOCC4)ccc32)cc1	1 (inactive)	5.27
COc1ccc(C2C(C(=O)OCC(=O)NC(C)(C)C)CCC(=O)N2c2ccc(C)cc2)cc1OC (stereo not given)	0.81 (inactive)	5.36
CC(/C=C1\SC(=S)N(NC(=O)c2ccc(O)cc2)C1=O)=C\c1ccccc1	0.83 (inactive)	5.35
Oc1c(C(c2cccs2)N2CCN(c3cccc(Cl)c3)CC2)sc2ncnn12 (stereo not given)	0.68 (inactive)	5.43
COc1ccc(OC)c(-c2csc(NC(=O)C3c4ccccc4Oc4ccccc43)n2)c1	0.96 (inactive)	5.29
CCOC(=O)C1=C(C)N=C2SC(CC)C(=O)N2C1c1cccc(F)c1 (stereo not given)	1.14 (inactive)	5.21
C/C(=N\NC(=O)c1cccc(S(=O)(=O)Nc2cccc(Cl)c2)c1)c1cccs1	0.65 (inactive)	5.46
C/C(=N\NC(=O)CCc1c[nH]c2ccccc12)c1cccc([N+](=O)[O-])c1	0.8 (inactive)	5.36
O=C(NCCN1C(=O)S/C(=C/c2ccccc2)C1=O)C1CCCN1C(=O)c1cccs1 (stereo not given)	0.61 (inactive)	5.48
C=CCNc1oc(COc2ccc(C)cc2)nc1C#N	0.66 (inactive)	5.44
CC(=O)Nc1ccc(-n2c(C)nc(=O)c(-c3ccccc3)c2C)cc1	0.89 (inactive)	5.32
C=CCOC(=O)C(C#N)c1nc2ccccc2nc1N1CCN(c2ccccc2OCC)CC1 (stereo not given)	0.56 (inactive)	5.52
C=CCN(C(=O)Nc1ccc(Cl)cc1)C1CC(=O)N(c2ccc(OC)cc2)C1=O (stereo not given)	0.9 (inactive)	5.31
O=C(CC1SC(=O)N(Cc2ccc(Cl)cc2)C1=O)Nc1nccs1 (stereo not given)	1.75	5.02
Cc1ccc(OCc2nc(-c3ccc(Cl)cc3)n[nH]2)cc1	0.79 (inactive)	5.37
O=C(c1ccco1)N1CCN(c2nc(C3CC3)nc3c2nnn3Cc2ccccc2Cl)CC1	0.32 (inactive)	5.77
CCOc1ccccc1Nc1ncnc2c1cnn2-c1ccccc1	0.57 (inactive)	5.51
Cc1ccc(OCc2nnc(SCC(=O)N3c4ccccc4Sc4ccc(Cl)cc43)o2)cc1	0.85 (inactive)	5.34
COc1ccc(N2C(=O)C(CC(=O)Nc3ccc(F)cc3)N(CCc3cccs3)C2=O)cc1 (stereo not given)	0.81 (inactive)	5.36
CCCN1C(=O)/C(=N\OCC(=O)NC23CC4CC(CC(C4)C2)C3)c2ccccc21	1.01 (inactive)	5.27
COc1cccc(C2CC(c3ccc(Cl)cc3Cl)n3nc(N)nc3N2)c1 (stereo not given)	1.03 (inactive)	5.26
Cc1cc(C)n(CCC(=O)N/N=C/c2ccccc2O)n1	0.28 (inactive)	5.81
Cc1cc(N2CCN(c3cccc(C)c3C)CC2)nc(-c2ccccc2)n1	0.99 (inactive)	5.27
Cc1nn(Cc2ccccc2)c(C)c1NC(=O)c1noc2c1CCc1ccccc1-2	0.95 (inactive)	5.29

SMILES	fold increase in Dox EC50	pEC50
Cc1nc(=O)c(-c2ccccc2)c(C)n1-c1ccc(O)cc1	1.32 (inactive)	5.15
Cc1cc(NC(=O)CSc2nc(-c3ccccc3)c(C#N)c(=O)[nH]2)no1	1.51	5.09
CCOC(=O)CN(C(=O)CSc1nnc(COc2ccc(OC)cc2)n1C)c1ccccc1	0.6 (inactive)	5.49
COc1ccc(C2=NN(C(=O)c3cccs3)C(c3ccc(OC)cc3)C2)cc1 (stereo not given)	1.06 (inactive)	5.24
Cc1nn(Cc2ccc(Cl)cc2Cl)c(C)c1NC(=O)c1ccc(COc2cc(Cl)ccc2Cl)o1	0.82 (inactive)	5.36
COc1ccccc1C1CC(c2ccc(Cl)cc2Cl)Nc2nc(N)nn21 (stereo not given)	0.95 (inactive)	5.29
CC1(C)Cc2c(sc3nnn(Cc4ccc(Cl)cc4)c(=O)c23)CO1	0.85 (inactive)	5.34
O=C(NNC1=C(C(=O)C(F)(F)F)CCC1)c1ccc(Cl)cc1	0.87 (inactive)	5.33
CCOc1ccc(OCC)c(-c2c(=O)n(OCc3ccc(Cl)cc3)c3ccccc3[n+]2[O-])c1	0.53 (inactive)	5.54
O=C(CSc1nc2ccccc2o1)NCc1ccc2c(c1)OCO2	1.15 (inactive)	5.21
CCOc1ccc(NC(=O)Nc2cc(-c3ccccc3)sc2C(=O)OC)cc1	0.62 (inactive)	5.48
CC1(C)O[C@@H]2C[C@H]3[C@@H]4CCC5=CC(=O)C=C[C@]5(C)[C@@]4(F)[C@@H](O)C[C@]3(C)[C@]2(C(=O)CO)O1	0.62 (inactive)	5.48
O=C(COc1ccc(F)cc1)Nc1ccc(-n2cnnn2)cc1	0.75 (inactive)	5.39
Cc1ccc(Cl)cc1N1CCN(C(=O)c2cc3c(=O)n(C)c4ccccc4c3n2C)CC1	0.19 (inactive)	6.00
O=C1CC(N2CCN(c3nc4ccccc4s3)CC2)C(=O)N1c1ccc(F)cc1 (stereo not given)	1.18 (inactive)	5.19
CCOc1ccccc1CNC(=O)c1cc2oc3ccccc3c2n1CC	1.24 (inactive)	5.17
O=C(OC1CCc2ccccc2C1=O)c1ccccc1O (stereo not given)	0.69 (inactive)	5.43
COc1ccc(C(=O)Nc2ccc(S(=O)(=O)Nc3nccnc3OC)cc2)cc1	1.12 (inactive)	5.22
CCOc1ccc(C2CC(c3ccc(CC)cc3)Nc3nc(N)nn32)cc1 (stereo not given)	1.24 (inactive)	5.17
O=C(COc1ccc2oc3c(c2c1)CCCC3)Nc1ccccn1	1.27 (inactive)	5.16
CCc1nnc(NC(=O)C(C)N2C(=O)C3C4C=CC(C4)C3C2=O)s1 (stereo not given)	1.01 (inactive)	5.26
CC(C)(C)NC(NC(=O)Cc1ccccc1)C(Cl)(Cl)Cl (stereo not given)	1.07 (inactive)	5.24
O=C1N=C(c2ccccc2)S/C1=C\c1cccs1	1.2 (inactive)	5.19
COc1ccc(-c2cc3nc(C)cc(N4CC(C)CC(C)C4)n3n2)cc1 (stereo not given)	0.64 (inactive)	5.46
CCOc1ccccc1N(C(=O)c1snc(C(N)=O)c1N)C(C(=O)NCCC(C)C)c1ccco1 (stereo not given)	0.3 (inactive)	5.79

SMILES	fold increase in Dox EC50	pEC50
COc1cc(/C=C(\C#N)c2ccccn2)ccc1OCc1ccccc1Cl	1.1 (inactive)	5.23
NC1=NC(=O)/C(=C/c2cn(CCC(=O)O)nc2-c2ccc(Cl)cc2)S1	0.93 (inactive)	5.30
O=C(Cc1ccccc1F)Nc1cccc2cccnc12	1.68	5.04
COc1ccc(NC(=O)c2oc3ccccc3c2NC(=O)c2ccc3c(c2)OCO3)cc1	0.44 (inactive)	5.62
Cc1nnc(NC(=O)c2ccccc2Br)s1	1.05 (inactive)	5.24
Cc1ccc(C(=O)Nc2nnc(C)s2)o1	1.32 (inactive)	5.15
CNC[C@H](O)c1ccc(O)c(O)c1	0.69 (inactive)	5.43
Cc1ccc(-c2noc(C3CCCN(S(=O)(=O)c4ccc5ccccc5c4)C3)n2)o1 (stereo not given)	1.58	5.07
CSC1=NCCN1C(=O)Cc1ccc(Cl)cc1	1.04 (inactive)	5.25
CC1=NN(c2ccc(C)cc2C)C(=O)C1C(c1ccccc1O)C1C(=O)N(c2ccc(C)cc2C)N=C1C (stereo not given)	0.71 (inactive)	5.42
CCC(Sc1nc2ccccc2s1)C(=O)Nc1nnc(C)s1 (stereo not given)	1.04 (inactive)	5.25
O=C(NNC(=O)c1cccc(S(=O)(=O)N2CCN(c3ccccc3)CC2)c1)c1ccc(Cl)cc1	1.47 (inactive)	5.10
Cc1cc2n(n1)C(c1ccccc1)CC(c1ccc(Br)cc1)=N2 (stereo not given)	0.76 (inactive)	5.38
CCCCCn1c(CN2CCCCC2C)nc2c1c(=O)n(C)c(=O)n2C (stereo not given)	0.16 (inactive)	6.05
O=C(CCN1C(=O)/C(=C\c2ccccc2)SC1=S)NNC(=O)c1cccnc1	1.2 (inactive)	5.19
CCC(Sc1nccn1C)C(=O)Nc1nnc(C)s1 (stereo not given)	1.01 (inactive)	5.27
COc1ccc(NC(=O)Cn2cc(C(=O)c3ccco3)c3ccccc32)cc1	0.88 (inactive)	5.32
COc1ccc(OCc2nc(C#N)c(N3CCN(c4ccc(OC)cc4)CC3)o2)cc1	0.76 (inactive)	5.39
COc1ccc(Cc2nnc(N/N=C/c3ccc(O)cc3O)[nH]c2=O)cc1OC	0.15 (inactive)	6.08
O=C(NCCc1ccccc1)C(=O)c1c(-c2ccccc2)cc2ccccn12	1.08 (inactive)	5.23
N#CCCNC(=O)Cn1c(COc2ccc(Cl)cc2)nc2ccccc21	0.85 (inactive)	5.34
c1ccc(-n2ncc3c(NCc4cccnc4)ncnc32)cc1	0.57 (inactive)	5.51
Cc1n[nH]c(=S)n(/N=C/c2ccccn2)c1=O	0.91 (inactive)	5.31
CSc1ncc(Cl)c(C(=O)Nc2nnc(SC)s2)n1	1.12 (inactive)	5.22
CCc1ccc(C2CC(c3ccccc3C)n3nc(N)nc3N2)cc1 (stereo not given)	0.57 (inactive)	5.51
